Assay results as given in patent US20080114047A1 (priority 2003, published 2008).
Several values for one entry are separate records, joined by “and”; a condition that tells them apart may be missing. Equal entries are not always repeated. Structures can show the parent of a compound that is named as a salt. Where two headings read alike, the source gives them in different places.

Legend:
[1] = tested on: Trypanosoma brucei rhodesiense; assay: Anti-protozoan data: T.b.r. IC50; format: cell-based; conditions: Tables VI(a), VI(c), read-out: T.b.r. IC50
Trypanosoma cruzi = assay: Anti-protozoan data: T. cruzi IC50; format: cell-based; conditions: Tables VI(a), VI(c), read-out: T. cruzi IC50
Plasmodium falciparum = assay: Anti-protozoan data: P. falcip. IC50; format: cell-based; conditions: Tables VI(a), VI(c), read-out: P. falcip. IC50
DNA = DNA binding ΔTm; conditions: Tables VI(a), VI(c)
[2] = tested on: Mycobacterium tuberculosis; assay: Compounds tested against Mycobacterium tuberculosis (MIC90); format: cell-based; conditions: read-out: M. tb. MIC90
Candida albicans = assay: Anti-fungal data: Candida albicans; format: cell-based; conditions: for MFC / MIC80: strain A39; for MIC: strain A39, read-out: Candida albicans (A39) MIC100
Aspergillus fumigatus = assay: Anti-fungal data: Aspergillus fumigatus; format: cell-based; conditions: for MIC80 / MFC: strain DUMC 168.95; for MIC: strain DUMC 168.95, read-out: Aspergillus. Fumigatus (DUMC 168.95) MIC100
Cryptococcus neoformans = assay: Anti-fungal data: Cryptococcus neoformans; format: cell-based; conditions: for MFC / MIC80: strain H99; for MIC: strain H99, read-out: Cryptococcus neoformans (H99) MIC100
[3] = tested on: L. donovani axenic amastigotes; assay: In vitro anti-leishmania activity (IC50 vs. L. donovani axenic amastigotes); format: cell-based; conditions: Leishmania donovani
J774 macrophages = assay: Toxicity against J774 macrophages (IC50); format: cell-based; conditions: Mus musculus, Tables I-III, V
[4] = Tables VI(a), VI(c), read-out: Leishmania donovani IC50
[5] = axenic amastigotes, Tables I-V, read-out: IC50 vs. L. donovani

Row | SMILES | IC50 [1] [µM] | IC50 (Trypanosoma cruzi) [µM] | IC50 (Plasmodium falciparum) [µM] | DNA binding Δ Tm (DNA) | MIC90 [2] | MFC (Candida albicans) [µg/mL] | MIC80 (Candida albicans) [µg/mL] | MIC (Candida albicans) [µg/mL] | MIC80 (Aspergillus fumigatus) [µg/mL] | MIC (Aspergillus fumigatus) [µg/mL] | MFC (Cryptococcus neoformans) [µg/mL] | MIC80 (Cryptococcus neoformans) [µg/mL] | MIC (Cryptococcus neoformans) [µg/mL] | melting point | IC50 (in vitro) [µM] | IC50 [3, 4] [µM] | IC50 [3, 5] [µM] | IC50 (J774 macrophages) [µM] | MFC (Aspergillus fumigatus) [µg/mL]
1 | Cl.Cl.N=C(N)c1ccc(OCCCCCOc2ccc(-c3cc4cc(C(=N)N)ccc4o3)cc2)cc1 [Compound 50, 2-(4-(5-(4-Carbamimidoylphenoxy)pentyloxy)phenyl)benzofuran-5-carboxamidine dihydrochloride] | 0.369 | 4.71 | 0.313 | 12.7 | 1.01 µg/mL and 1.84 µM | 3.12 | 0.39 | 0.78 | 6.25 | > 100 | 12.5 | 0.39 | 0.78 | 290 °C (dec.) | 4.19 |  |  |  | 
2 | CC(C)NC(=N)c1ccc(OCCCOc2ccc(-c3cc4ccc(C(=N)NC(C)C)cc4o3)cc2)cc1.Cl.Cl [Compound 69, 2-(4-(3-(4-(N-Isopropylcarbamimidoyl)phenoxy)propoxy)phenyl)-N-isopropylbenzofuran-6-carboxamidine dihydrochloride] | 0.0881 | 28.4 | 0.0366 |  | 0.54 µg/mL and 0.92 µM |  |  |  |  |  |  |  |  | 266 to 270 °C | 49.9 | 3.18 ± 0.19 | 3.18 ± 0.19 | 9.9 ± 1.7 | 
3 | CC(C)NC(=N)c1ccc2oc(CCCCc3cc4cc(C(=N)NC(C)C)ccc4o3)cc2c1 [Compound 21, dihydrochloride] | 0.0988 | 69.1 | 0.0098 | 6.60 | 0.07 µg/mL and 0.13 µM | > 100 | 10 | 10 | > 100 | > 100 | > 100 | 100 | 100 |  | > 163 | 12.7 ± 2.27 |  |  | 
4 | CC(C)NC(=N)c1ccc(OCCCCCOc2ccc(-c3cc4cc(C(=N)NC(C)C)ccc4o3)cc2)cc1.Cl.Cl [Compound 51, 2-(4-(5-(4-(N-Isopropylcarbamimidoyl)phenoxy)pentyloxy)phenyl)-N-isopropylbenzofuran-5-carboxamidine dihydrochloride] | 0.302 | 7.68 | 0.193 | 18.7 | 0.9 µg/mL and 1.43 µM | 100 | 100 | 100 | 100 | 100 |  |  |  | 260 to 263 °C | 20.5 | 2.08 ± 0.64 |  |  | > 100
5 | Cl.Cl.c1cc(C2=NCCN2)ccc1OCCCCCCOc1ccc(-c2cc3cc(C4=NCCN4)ccc3o2)cc1 [Compound 55, 2-(2-(4-(6-(4-(4,5-Dihydro-1H-imidazol-2-yl)phenoxy)hexyloxy)phenyl)benzofuran-5-yl)-4,5-dihydro-1H-imidazole dihydrochloride] | 0.36 | 1.83 | 0.116 | 14.4 | > 82.7 µg/mL and > 128 µM | 10 | 10 | 10 | 10 | > 100 |  |  |  | 275 to 277 °C | 1.48 | 3.32 ± 0.97 |  |  | 
6 | Cl.Cl.N=C(N)c1ccc(OCCCCOc2cccc(-c3cc4cc(C(=N)N)ccc4o3)c2)cc1 [Compound 35, 2-(3-(4-(4-Carbamimidoylphenoxy)butoxy)phenyl)benzofuran-5-carboxamidine dihydrochloride] | 0.779 |  | 0.0755 |  |  |  |  |  |  |  |  |  |  | 284 to 286 °C | 8.06 | 4.45 ± 1.93 | 4.45 ± 1.93 | 9.6 ± 1.5 | 
7 | Cl.Cl.N=C(N)c1ccc(OCCCCOc2ccc(-c3cc4ccc(C(=N)N)cc4o3)cc2)cc1 [Compound 71, 2-(4-(4-(4-Carbamimidoylphenoxy)butoxy)phenyl)benzofuran-6-carboxamidine dihydrochloride] | 1.06 | 12.5 | 0.166 |  | 0.45 µg/mL and 0.85 µM |  |  |  |  |  |  |  |  | 324 to 325 °C | 14.1 | 3.22 ± 0.96 | 3.22 ± 0.96 | 0.86 ± 0.2 | 
8 | CC(C)NC(=N)c1ccc(OCCCCCOc2cccc(-c3cc4cc(C(=N)NC(C)C)ccc4o3)c2)cc1.Cl.Cl [Compound 39, 2-(3-(5-(4-(N-Isopropylcarbamimidoyl)phenoxy)pentyloxy)phenyl)-N-isopropylbenzofuran-5-carboxamidine dihydrochloride] | 0.452 | 26 | 0.123 | 20.8 | 1.12 µg/mL and 1.8 µM | 100 | 10 | 100 | 10 | 100 |  |  |  | 225 to 227 °C | 10.1 | 6.86 ± 2.1 | 6.86 ± 2.1 |  | > 100
9 | Cl.Cl.N=C(N)c1ccc(OCCCCCOc2cccc(-c3cc4cc(C(=N)N)ccc4o3)c2)cc1 [Compound 38, 2-(3-(5-(4-Carbamimidoylphenoxy)pentyloxy)phenyl)benzofuran-5-carboxamidine dihydrochloride] | 0.863 | 7.78 | 0.428 | 21.1 | 1.96 µg/mL and 3.48 µM | 12.5 | 0.78 | 6.25 | 50 | > 100 | 3.12 | 0.39 | 0.781 | 165 to 168 °C | 3.02 | 10.5 ± 2.11 |  |  | 
10 | CC(C)NC(=N)c1ccc(OCCCOc2cccc(-c3cc4cc(C(=N)NC(C)C)ccc4o3)c2)cc1.Cl.Cl [Compound 33, 2-(3-(3-(4-(N-Isopropylcarbamimidoyl)phenoxy)propoxy)phenyl)-N-isopropylbenzofuran-5-carboxamidine dihydrochloride] | 0.547 | 93.6 | 0.0613 | 14.8 | < 0.62 µg/mL and < 1 µM | 10 | ≤ 1 | 10 | 10 | 100 |  |  |  | 205 to 208 °C | 26.5 | 4.49 ± 0.56 | 4.49 ± 0.56 |  | > 100
11 | Cl.Cl.c1cc(OCCCOc2ccc(C3=NCCN3)cc2)cc(-c2cc3cc(C4=NCCN4)ccc3o2)c1 [Compound 34, 2-(2-(3-(3-(4-(4,5-Dihydro-1H-imidazol-2-yl)phenoxy)propoxy)phenyl)benzofuran-5-yl) -4,5-dihydro-1H-imidazole dihydrochloride] | 1.17 |  | 0.108 |  |  |  |  |  |  |  |  |  |  | 193 to 197 °C | 6.52 | 5.93 ± 0.04 | 5.93 ± 0.04 | 7.1 ± 0.8 | 
12 | Cl.Cl.N=C(N)c1ccc(OCCCCOc2cccc(-c3cc4ccc(C(=N)N)cc4o3)c2)cc1 [Compound 59, 2-(3-(4-(4-Carbamimidoylphenoxy)butoxy)phenyl)benzofuran-6-carboxamidine dihydrochloride] | 1.33 |  | 0.321 |  |  |  |  |  |  |  |  |  |  | 278 to 280 °C | 7.57 | 5.93 ± 0.24 | 5.93 ± 0.24 | 11 ± 2 | 
13 | Cl.Cl.N=C(N)c1ccc(OCCCOc2cccc(-c3cc4cc(C(=N)N)ccc4o3)c2)cc1 [Compound 32, 2-(3-(3-(4-Carbamimidoylphenoxy)propoxy)phenyl)benzofuran-5-carboxamidine dihydrochloride] | 0.907 | 16.1 | 0.0397 | 18.7 | 0.53 µg/mL and 1 µM | 10 | ≤ 1 | 10 | 10 | 100 |  |  |  | 175 to 178 °C | 10.4 | 3.42 ± 0.9 | 3.42 ± 0.9 |  | > 100
14 | N=C(N)c1ccc(OCCCCCOc2ccc(C(=N)N)cc2)cc1 [Pentamidine, pentamidine, reference compound] |  |  |  |  |  |  |  |  |  |  |  |  |  |  |  |  | 2 ± 0.6 | 23 ± 6 | 
15 | Cl.Cl.N=C(N)c1ccc(OCCCCOc2ccc(-c3cc4cc(C(=N)N)ccc4o3)cc2)cc1 [Compound 47, 2-(4-(4-(4-Carbamimidoylphenoxy)butoxy)phenyl)benzofuran-5-carboxamidine dihydrochloride] | 0.164 | 2.49 | 0.141 | 11.8 | 31.8 µg/mL and 59.8 µM | 10 | ≤ 1 | 10 | 10 | 100 |  |  |  | 310 °C | 1.3 | 0.61 ± 0.53 | 0.61 ± 0.53 |  | > 100
